Laboratory results published in ChEMBL document CHEMBL1131348, “Pyrazolo[1,5-a]pyrimidine CRF-1 receptor antagonists” (Bioorg Med Chem Lett, 1998).

These compounds were tested against T1, Corticotropin-releasing factor receptor 1 (Homo sapiens, UniProt P34998) (assay: Displacement of [125I]0-CRF from human Corticotropin releasing factor receptor 1 expressed in CHO cells).
T1 sequence (P34998 whole entry): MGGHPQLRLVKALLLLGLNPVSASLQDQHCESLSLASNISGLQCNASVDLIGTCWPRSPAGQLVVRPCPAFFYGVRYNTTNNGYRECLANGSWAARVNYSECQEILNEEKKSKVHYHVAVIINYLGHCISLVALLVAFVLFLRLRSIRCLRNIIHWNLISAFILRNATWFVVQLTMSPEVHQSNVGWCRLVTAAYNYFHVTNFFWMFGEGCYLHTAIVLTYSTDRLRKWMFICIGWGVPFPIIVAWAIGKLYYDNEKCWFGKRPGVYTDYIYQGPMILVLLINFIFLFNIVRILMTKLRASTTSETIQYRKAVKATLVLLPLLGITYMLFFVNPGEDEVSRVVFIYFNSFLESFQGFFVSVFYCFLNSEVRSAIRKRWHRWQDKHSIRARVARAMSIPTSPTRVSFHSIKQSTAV
Format: cell-based

| Ki | Compound |
| --- | --- |
| 69 nM | CCCCNc1cc(C)nc2c(-c3ccc(Cl)cc3Cl)c(C)nn12 |
| 11 nM | CCN(CCOC)c1cc(C)nc2c(-c3ccc(Cl)cc3Cl)c(C)nn12 |
| 216 nM | CCCCN(OC)c1cc(C)nc2c(-c3ccc(Cl)cc3Cl)c(C)nn12 |
| 41 nM | Cc1cc(N2CCCCC2)n2nc(C)c(-c3ccc(Cl)cc3Cl)c2n1 |
| 77 nM | CCCCN(CC)c1cc(C)nc2c(-c3ccc(Cl)cc3)c(C)nn12 |
| 3.2 nM | CCCN(CC1CC1)c1cc(C)nc2c(-c3ccc(Cl)cc3Cl)c(C)nn12 |
| 93 nM | CCCCN(CC)c1cc(C)nc2c(-c3c(Cl)cc(Cl)cc3Cl)c(C)nn12 |
| 56 nM | CCCCN(CC)c1nc(C)nc2c1c(C)cn2-c1c(C)cc(C)cc1C [CP-154526] |
| 6.4 nM | CCCC1CCCCN1c1cc(C)nc2c(-c3ccc(Cl)cc3Cl)c(C)nn12 (centres undefined) |
| 511 nM | CCCCN(CC)c1cc(C)nc2c(-c3ccccc3)c(C)nn12 |
| 40 nM | CCCCN(CC)c1cc(C)nc2c(-c3ccc(Cl)cc3Cl)cnn12 |
| 5 nM | CCCCN(CC)c1cc(C)nc2c(-c3ccc(Cl)cc3Cl)c(C)nn12 |
| 310 nM | Cc1cc(N2CCOCC2)n2nc(C)c(-c3ccc(Cl)cc3Cl)c2n1 |
| 15 nM | CCCCN(CC)c1cc(C)nc2c(-c3ccccc3Cl)c(C)nn12 |
